Values quoted from earlier work in PMC10539439 (Pharmacological Reports, 2023).

Key:
[1] = 5 mg/kg b.w., i.p.; cited from earlier work
[2] = 5 mg/kg b.w., i.p.; cited from earlier work; remark: listed apart in the source
[3] = 5 mg/kg b.w., i.p.; cited from earlier work; remark: listed apart in the source

For `N=C(N)N/N=C/c1c(Cl)cccc1Cl` [Guanabenz], the Spontaneous activity [1] is given as “↓ [17]”, the Plasma cholesterol level [2] is given as “↑ [17]” and the Plasma glucose level [2] is given as “↓ [17]”. The Plasma triglyceride level [2] was “↓ [17]” and the Core temperature [3] was “↓ [17]”.
